Measured values: patent US20230270773A1, “METHODS OF TREATING CANCER WITH A STING AGONIST” (Immunesensor Therapeutics, Inc., priority 2019, published 2023)
“Also recorded” adds a separate entry of the source.

Legend:
[1] = Pharmacokinetics after intratumoral administration in B16F10 tumor bearing mice; type: in vivo; settings: female B16F10 tumor bearing mice
Description: The nonclinical pharmacokinetics (PK) of subcutaneously, intravenously, or intratumorally administered Compound A was investigated in mice at the doses of 0.1 and/or 0.5 mg/kg.

[2] = Metabolic stability in in vitro systems; type: in vitro ADME, and monkey; settings: human, rat, mouse, dog, monkey
[3] = Compound A levels in plasma after dosing of mice; type: in vivo, C57BL/6 mice
Description: The pharmacokinetic/pharmacodynamic properties of Compound A were evaluated in C57BL/6 mice following dosing by subcutaneous, intramuscular, or intravenous routes of administration. Blood was collected post-dosing for the measurement of Compound A and cytokine levels in plasma.

B16F10 melanoma = B16F10 melanoma syngeneic tumor model; type: in vivo, C57BL/6 mice
Description: To assess therapeutic activity of Compound A, C57BL/6 immune competent mice received subcutaneous implants of B16F10 melanoma cells on the right flank. Five days later, when tumor volumes were between 50 and 100 mm^3, the mice were intratumorally dosed with 0.1, 0.3, or 1.0 µg (equivalent to 0.005, 0.015, or 0.05 mg/kg) of Compound A alone, or in combination with 200 µg of PD-L1 antibody (clone 10F.9G2 available from Bio-X-Cell (catalog # BE0101)). Dosing was repeated every 3-4 days for 4 total doses. […] Once again, the effect was enhanced when Compound A was administered together with the PD-L1 antibody.

AG104 (fibrosarcoma) = assay: AG104 syngeneic tumor model, intratumoral; type: in vivo, mouse
Description: Note that several of these tumors such as B16F10, 4T1, LL2 and AG104 are known to be refractory to antibodies against PD-1, PD-L1, or CTLA-4. In the B16F10 tumor model, twice weekly injection of Compound A for two weeks was efficacious in a dose-dependent manner in the range from 0.1 µg to 10 µg (0.005-0.5 mg/kg).

AG104A fibrosarcoma = assay: Abscopal effect, AG104A fibrosarcoma bilateral tumor model; type: in vivo, C3B6F1 mice; settings: intratumoral into primary tumor, PD-L1 antibody 200 µg
Description: C3B6F1 mice (N=8) bearing AG104A tumors on both left and right flanks were treated intratumorally on the right flank (primary) with Compound A on Days 5, 8, 11, and 15 after tumor inoculation. Tumors on the left flank (distant) were not treated.
An abscopal effect is an immune-mediated phenomenon wherein direct treatment of a primary tumor can lead to a response in a distant tumor. The potential abscopal effect of Compound A was evaluated in B16 melanoma and AG104A fibrosarcoma tumor models evaluating mice bearing tumors on both right flank (primary tumor) and left flank (secondary tumor). In both models, Compound A was administered intratumorally into the primary tumor on days 5, 8, 11 and 15 after tumor inoculation. The secondary tumor was not treated.

[4] = tested on: B16 melanoma lung metastasis; assay: B16 melanoma lung metastasis model; type: in vivo, mouse; settings: intratumoral days 5, 8, 11; PD-L1 antibody 200 µg
Description: A B16 melanoma lung metastasis model was used to evaluate the effect of Compound A on tumor metastasis. Compound A was administered intratumorally on days 5, 8, and 11 after tumor inoculation alone or in combination with a PD-L1 antibody (200 µg of the antibody used in Example 6).

[5] = Cynomolgus monkey toxicity and toxicokinetics, subcutaneous (Phases I-III, priming dose); type: in vivo, cynomolgus monkeys
Description: (§1) Male and female cynomolgus monkeys were assigned to groups and doses of Compound A were administered. Animals were dosed via subcutaneous injection at a volume of 2 mL/kg. The vehicle control article/diluent was phosphate-buffered saline (PBS).

[6] = tested on: IFNα, IL-6, TNFα and other cytokines; assay: Plasma cytokine levels in cynomolgus monkeys; type: in vivo
Description: as §1
Escalation of Compound A dose levels was tolerated up to 3.0 mg/kg/dose, with findings limited to increased body temperature and elevated IFNα, IL-6, and TNFα cytokine levels. IFNα, TNFα, and IL-6 levels were measured at 3, 6, and 12 hours post-dosing. Dose related but variable changes were observed. […] TNFα levels increased at 3 hours in the 1 mg/kg group. […] The cytokine responses are consistent with the predicted STING pathway activation.

[7] = tested on: IFNα, IL-6, TNFα and other cytokines; assay: Plasma cytokine levels in cynomolgus monkeys; type: in vivo; settings: for plasma IFNα levels: male and female
[8] = 1 mg/kg/day, 1.5, 3 and 6 hours postdose

Work on Nc1nc2c(ncn2[C@@H]2O[C@@H]3COP(=O)(O)OC4C(O)[C@H](n5cnc6c(N)ncnc65)O[C@@H]4COP(=O)(O)OC2C3OCC(F)(F)F)c(=O)[nH]1 (stereo partly drawn) [Compound A] yielded a Frel in plasma ([1]; intratumoral 0.1 mg/kg) of 105%, a Frel in plasma ([1]; intratumoral 0.5 mg/kg) of 112% and a half-life [2] greater than 2 h. The concentration at 15 minutes ([3]; C57BL/6, mouse, plasma, 15 minutes after injection, subcutaneous, intramuscular or intravenous, read-out: Compound A level in plasma) was 5 to 15 µM, the “Compound A in circulation” value ([3]; at 15 minutes, subcutaneous or intratumoral) was “detectable” and the “Levels of Compound A” value ([3]; by 1 hour, subcutaneous, intratumoral or intravenous) was “below the limit of quantitation (BLOQ)”. The “Compound A level in plasma” value ([3]; one hour after administration) was “below the limit of detection”, the “Cmax, comparison between administration routes” value ([3]; subcutaneous, intramuscular, intravenous) was “not significantly different between administration routes” and the “efficacious dose range (dose-dependent)” value (B16F10 melanoma) was 0.1 to 10 µg. For the same compound, the “tumor growth and survival” value (B16F10 melanoma; 0.005 mg/kg) was “sufficient to inhibit tumor growth and prolong survival”, the tumor volume (B16F10 melanoma; Compound A 0.1, 0.3 or 1.0 µg intratumoral, PD-L1 antibody 200 µg, FIG. 3 Panels A-C) was “significantly reduced tumor volume at all dose levels” and the survival time (B16F10 melanoma; Compound A 0.1, 0.3 or 1.0 µg intratumoral, PD-L1 antibody 200 µg, FIG. 3 Panels E-G) was “significantly increased the survival time”. The tumor growth inhibition (B16F10 melanoma; intratumoral) was “highly effective in inhibiting tumor growth”, the “tumor growth and survival” value (B16F10 melanoma; intratumoral, compared to controls) was “dose-dependent suppression of tumor growth and prolonged survival” and the “lowest dose with decreased tumor growth and prolonged survival” value (B16F10 melanoma; intratumoral, every 3-4 days, 4 doses (0.1 µg/mice)) was 0.005 mg/kg. The anti-tumor efficacy (B16F10 melanoma; subcutaneous) was “also effective”, the tumor growth inhibition (AG104 (fibrosarcoma)) was “highly effective in inhibiting tumor growth” and the “tumor growth/volume, primary and distant tumors” value (AG104A fibrosarcoma; 0.15 and 0.5 mg/kg, days 5, 8, 11, 15) was “tumor growth was suppressed in both primary and distant tumors; also recorded: significantly decreased”. The survival (AG104A fibrosarcoma) was “survival was significantly prolonged; also recorded: increases the survival”, the “number of metastases in the lung” value [4] was “dramatically reduced” and the primary tumor volume [4] was “significant reduction in tumor volume”. The morbidity ([5]; 10 mg/kg/dose, Phase I) was “Morbidity was observed within 1 day”, the “exposure (mean Cmax, AUC0-2, AUC0-8, AUC0-24) vs dose” value ([5]; 0.3 to 3 mg/kg/day, Day 1 of Phase II) was “generally dose-proportional” and the compound-related findings ([5]; 0.6 or 1.0 mg/kg/day) was “limited to a transient body temperature increase and mild to moderate clinical and anatomic pathology findings”. The tolerability ([5]; 3 weekly doses of 0.6 mg/kg without a priming dose) was “tolerated”, the tolerability ([5]; 3 weekly doses of 1.0 mg/kg/day preceded by a priming dose of 0.1 mg/kg) was “tolerated” and the “tolerated dose on escalation” value ([5]; Phase I, subcutaneous dose escalation) was “up to 3.0 mg/kg/dose”. For the same compound, the tolerability ([5]; Phase II, 3 mg/kg in naïve animals) was “not tolerated and led to clinical observations of morbidity or death within 1 day of dosing”, the tolerability ([5]; Phase II, 3 weekly administrations of 0.3 mg/kg) was “tolerated” and the survival of animals ([5]; Phase III, three weekly doses of 0.6 or 1.0 mg/kg/day) was “survived until scheduled sacrifice”. For the same compound, the “sex differences in mean Cmax, AUC0-2, AUC0-8, AUC0-24” value ([5]; monkeys) was “less than 2 fold”, the accumulation ([5]; multiple doses of 0.3 mg/kg/day) was “No accumulation” and the “dose not tolerated (acute morbidity and/or death)” value ([5]; naïve animals) was no less than 3.0 mg/kg. For the same compound, the “cause of acute morbidity and/or death” value ([5]; ≥ 3.0 mg/kg, naïve animals) was “pulmonary edema”, the IFNα levels ([6]; 1 mg/kg and 3 mg/kg groups, 3 and 6 hours post dosing) was “Moderate levels of IFNα” and the TNFα levels ([6]; 1 mg/kg group, 3 hours) was “increased”. The TNFα levels ([6]; 3 mg/kg and 10 mg/kg groups) was “Lower levels of TNFα”, the IL-6 increases ([6]; 3 mg/kg and 10 mg/kg, 12 hours postdose) was “persisted at 12 hours postdose” and the “cytokine levels, time course” value ([6]; NHP, non-GLP studies of Example 2) was “increases in the first 3-6 hours with return to baseline in most cases by 6-24 hours”. For the same compound, the “plasma IL-6 levels” value ([6]; all groups, 3 and 6 hours post dosing) was “Increases in plasma IL-6 levels”, the “plasma IL-6 levels” value ([7]; 0.1 mg/kg/day, 3 and 6 hours postdose) was “Increased plasma levels of IL-6” and the IP-10 ([7]; 0.1 mg/kg/day, 3 hours post dosing) was “Slight elevation of IP-10”. For the same compound, the TNFα levels ([7]; 0.1 mg/kg/day, 6 hours postdose in male, 3 and 6 hours in female) was “Elevated levels of TNFα”, the TNFα levels ([7]; 0.1 mg/kg/day, 24 hours post dosing) was “returned to non-detectable level” and the IL-6 levels ([7]; 0.1 mg/kg/day, 24 hours postdose) was “returned to a non-detectable level”. The “plasma IFNα levels” value ([7]; 0.1 mg/kg/day) was “did not cause significant increase”, the “plasma IL-6 levels” value ([7]; 0.6 mg/kg/day, 3 and 6 hours postdose) was “Increased plasma levels of IL-6” and the TNFα levels ([7]; 0.6 mg/kg/day, 6 hours postdose in male, 1.5, 3, 6 hours in female) was “Elevated levels of TNFα”. The “plasma IFNα levels” value ([7]; 0.6 mg/kg/day) was “did not cause significant increase”, the IP-10 ([7]; 0.6 mg/kg/day, throughout the time course) was “No significant elevation of IP-10” and the IP-10 level [7, 8] was “no increased IP-10 level”. The TNFα levels [7, 8] was “Elevated TNFα levels”, the IFNα levels ([7]; 1 mg/kg/day, 1.5 and 3 hours postdose) was “did not cause significant change” and the IL-6 levels ([7]; 1 mg/kg/day, 3 and 6 hours postdose) was “Marked increase in IL-6 levels”. For the same compound, the IFNα levels ([7]; 1 mg/kg/day, 6 hours postdose) was “elevated levels”, the IFNα levels ([7]; 3 mg/kg and 10 mg/kg, 12 hours after dosing) was “decreased 12 hours after dosing, but did not return to pre-dose levels” and the IFNα levels ([7]; 10 mg/kg group) was “Higher levels of IFNα”. For the same compound, the “IL-12, G-CSF, and IFNγ levels” value ([7]; Phase II) was “sporadic increases”, the “changes in MCP-1 and IP-10 levels” value ([7]; Phase II) was “suggestive of an inflammatory response with resolution by 24 hours postdose” and the “plasma IL-1ra, IL-6, and IFNα cytokine levels” value ([7]; Phase II, 3 mg/kg, 3 and 6 hours) was “dose-dependent increases”.
